This assay has as its system ATF4 luciferase reporter (human full-length ATF4 5'-UTR fused to firefly luciferase) in HEK293T cells. Put plainly: ATF4-Luc assay (in vitro model of VWMD): HEK293T cells carrying ATF4 luciferase reporter, tunicamycin-treated. In kind it is cell-based. As to conditions: Homo sapiens, HEK-293T, 1 μg/mL tunicamycin, 7 hours, One Glo luminescence. Put shortly:
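Reporter cells were stably generated by retroviral transduction and puromycin selection, then seeded at 30,000 cells/well. Next day, cells received 1 μg/mL tunicamycin with 200 nM test compound for 7 h, and luciferase luminescence was read with a one-step reagent. Values reported as EC50.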
On the technique in general: In a reporter assay the amount or activity of a reporter protein is the signal.
`O=C(NC12CCC(NC(=O)[C@H]3C[C@@H](O)c4cc(Cl)ccc4O3)(CC1)CC2)c1ccc(OC(F)(F)F)cn1` [Compound 361, N-(4-{[(2R,4R)-6-chloro-4-hydroxy-3,4-dihydro-2H-1-benzopyran-2-carbonyl]amino}bicyclo[2.2.2]octan-1-yl)-5-(trifluoromethoxy)pyridine-2-carboxamide]: the EC50 (commonly the concentration needed to bring the measured effect to its halfway point) was in the range of 50 to 250 nM. With `O=C(NC12CCC(NC(=O)[C@@H]3C[C@H](O)c4cc(Cl)ccc4O3)(CC1)CC2)c1ccc(OC(F)(F)F)cn1` [Compound 362, N-(4-{[(2S,4S)-6-chloro-4-hydroxy-3,4-dihydro-2H-1-benzopyran-2-carbonyl]amino}bicyclo[2.2.2]octan-1-yl)-5-(trifluoromethoxy)pyridine-2-carboxamide], the EC50 was in the range of 500 to 2000 nM. With `O=C(COc1ccc(Cl)c(F)c1)NC12CCC(NC(=O)C3CC(=O)c4cc(Cl)ccc4O3)(CC1)NC2=O` (centres unmarked) [Compound 363, 6-chloro-N-{4-[2-(4-chloro-3-fluorophenoxy)acetamido]-3-oxo-2-azabicyclo[2.2.2]octan-1-yl}-4-oxo-3,4-dihydro-2H-1-benzopyran-2-carboxamide], the EC50 lay within 10 to 50 nM. For the compound `O=C(COc1ccc(Cl)c(F)c1)NC12CC(NC(=O)[C@H]3C[C@H](O)c4cc(Cl)c(F)cc4O3)(C1)C2` [Compound 367, (2R,4S)-6-chloro-N-{3-[2-(4-chloro-3-fluorophenoxy)acetamido]bicyclo[1.1.1]pentan-1-yl}-7-fluoro-4-hydroxy-3,4-dihydro-2H-1-benzopyran-2-carboxamide], the EC50 was less than 10 nM.

In the case of `O=C(NC12CCC(NC(=O)[C@H]3C[C@@H](O)c4cc(Cl)ccc4O3)(C1)C2)c1ccc(OC(F)(F)F)cn1` [Compound 373, N-(4-{[(2R,4R)-6-chloro-4-hydroxy-3,4-dihydro-2H-1-benzopyran-2-carbonyl]amino}bicyclo[2.1.1]hexan-1-yl)-5-(trifluoromethoxy)pyridine-2-carboxamide], the EC50 fell in the range of 10 to 50 nM.

On to `O=C(NC12CCC(NC(=O)[C@H]3C[C@@H](O)c4cc(Cl)ccc4O3)(C1)C2)c1ccc(C(F)(F)F)cc1` [Compound 374, (2R,4R)-6-chloro-4-hydroxy-N-{4-[4-(trifluoromethyl)benzamido]bicyclo[2.1.1]hexan-1-yl}-3,4-dihydro-2H-1-benzopyran-2-carboxamide], for which the EC50 fell in the range of 250 to 500 nM.

Consider `O=C(COc1ccc(Cl)c(F)c1)N[C@@H]1C[C@@H]2O[C@H]1C[C@H]2NC(=O)[C@H]1C[C@@H](O)c2cc(Cl)ccc2O1` [Compound 375, (2R,4R)-6-chloro-N-{(1S,2R,4S,5R)-5-[2-(4-chloro-3-fluorophenoxy)acetamido]-7-oxabicyclo[2.2.1]heptan-2-yl}-4-hydroxy-3,4-dihydro-2H-1-benzopyran-2-carboxamide], for which the EC50 is less than 10 nM. Consider `O=C(NC12CC(NC(=O)[C@H]3C[C@@H](O)c4cc(Cl)ccc4O3)(C1)C2)c1ccc(OC(F)(F)F)cn1` [Compound 376, N-(3-{[(2R,4R)-6-chloro-4-hydroxy-3,4-dihydro-2H-1-benzopyran-2-carbonyl]amino}bicyclo[1.1.1]pentan-1-yl)-5-(trifluoromethoxy)pyridine-2-carboxamide], for which the concentration for a half-maximal effect (EC50) is 10 to 50 nM.

As to `O=C(NC12CC(NC(=O)[C@H]3C[C@@H](O)c4cc(Cl)ccc4O3)(C1)C2)c1ccc(OC(F)(F)F)nc1` [Compound 377, N-(3-{[(2R,4R)-6-chloro-4-hydroxy-3,4-dihydro-2H-1-benzopyran-2-carbonyl]amino}bicyclo[1.1.1]pentan-1-yl)-6-(trifluoromethoxy)pyridine-3-carboxamide], the EC50 was in the range of 50 to 250 nM. As for `O=C(NC12CC(NC(=O)[C@H]3C[C@@H](O)c4cc(Cl)ccc4O3)(C1)C2)c1ccc(Cl)c(F)c1` [Compound 378, (2R,4R)-6-chloro-N-[3-(4-chloro-3-fluorobenzamido)bicyclo[1.1.1]pentan-1-yl]-4-hydroxy-3,4-dihydro-2H-1-benzopyran-2-carboxamide], the EC50 was in the range of 50 to 250 nM. `O=C(NC12CC(NC(=O)[C@H]3CC(=O)c4cc(Cl)ccc4O3)(C1)C2)c1ccc(OC(F)(F)F)cn1` [Compound 379, N-(3-{[(2R)-6-chloro-4-oxo-3,4-dihydro-2H-1-benzopyran-2-carbonyl]amino}bicyclo[1.1.1]pentan-1-yl)-5-(trifluoromethoxy)pyridine-2-carboxamide]: the EC50 was 500 to 2000 nM.

Regarding `O=C(NC12CC(NC(=O)[C@H]3C[C@@H](O)c4cc(Cl)ccc4O3)(C1)C2)c1cnn([C@H]2C[C@@H](OC(F)(F)F)C2)c1` [Compound 381, N-(3-{[(2R,4R)-6-chloro-4-hydroxy-3,4-dihydro-2H-1-benzopyran-2-carbonyl]amino}bicyclo[1.1.1]pentan-1-yl)-1-[cis-3-(trifluoromethoxy)cyclobutyl]-1H-pyrazole-4-carboxamide], the EC50 was less than 10 nM. Take `Cc1cnc(C(=O)NC23CC(NC(=O)[C@H]4C[C@@H](O)c5cc(Cl)ccc5O4)(C2)C3)cn1` [Compound 382, N-(3-{[(2R,4R)-6-chloro-4-hydroxy-3,4-dihydro-2H-1-benzopyran-2-carbonyl]amino}bicyclo[1.1.1]pentan-1-yl)-5-methylpyrazine-2-carboxamide]: the EC50 lay in the range of 50 to 250 nM. Turning to `O=C(NC12CC(NC(=O)[C@H]3C[C@@H](O)c4cc(Cl)ccc4O3)(C1)C2)c1cnc(C2CC2)o1` [Compound 383, N-(3-{[(2R,4R)-6-chloro-4-hydroxy-3,4-dihydro-2H-1-benzopyran-2-carbonyl]amino}bicyclo[1.1.1]pentan-1-yl)-2-cyclopropyl-1,3-oxazole-5-carboxamide], the EC50 lay within 50 to 250 nM. The result for `CCc1ncc(C(=O)NC23CC(NC(=O)[C@H]4C[C@@H](O)c5cc(Cl)ccc5O4)(C2)C3)o1` [Compound 384, N-(3-{[(2R,4R)-6-chloro-4-hydroxy-3,4-dihydro-2H-1-benzopyran-2-carbonyl]amino}bicyclo[1.1.1]pentan-1-yl)-2-ethyl-1,3-oxazole-5-carboxamide] reads 50 to 250 nM; that for `Cc1ncc(C(=O)NC23CC(NC(=O)[C@H]4C[C@@H](O)c5cc(Cl)ccc5O4)(C2)C3)s1` [Compound 385, N-(3-{[(2R,4R)-6-chloro-4-hydroxy-3,4-dihydro-2H-1-benzopyran-2-carbonyl]amino}bicyclo[1.1.1]pentan-1-yl)-2-methyl-1,3-thiazole-5-carboxamide], 50 to 250 nM.

Take `O=C(NC12CC(NC(=O)[C@H]3C[C@@H](O)c4cc(Cl)ccc4O3)(C1)C2)c1ccccn1` [Compound 386, N-(3-{[(2R,4R)-6-chloro-4-hydroxy-3,4-dihydro-2H-1-benzopyran-2-carbonyl]amino}bicyclo[1.1.1]pentan-1-yl)pyridine-2-carboxamide]: the EC50 lay in the range of 50 to 250 nM. The result for `O=C(NC12CC(NC(=O)[C@H]3C[C@@H](O)c4cc(Cl)ccc4O3)(C1)C2)c1cnc(C2CCC2)o1` [Compound 387, N-(3-{[(2R,4R)-6-chloro-4-hydroxy-3,4-dihydro-2H-1-benzopyran-2-carbonyl]amino}bicyclo[1.1.1]pentan-1-yl)-2-cyclobutyl-1,3-oxazole-5-carboxamide] reads 50 to 250 nM; that for `O=C(NC12CC(NC(=O)[C@H]3C[C@@H](O)c4cc(Cl)ccc4O3)(C1)C2)c1cnc(C2CN(CC(F)(F)F)C2)o1` [Compound 388, N-(3-{[(2R,4R)-6-chloro-4-hydroxy-3,4-dihydro-2H-1-benzopyran-2-carbonyl]amino}bicyclo[1.1.1]pentan-1-yl)-2-[1-(2,2,2-trifluoroethyl)azetidin-3-yl]-1,3-oxazole-5-carboxamide], 250 to 500 nM; that for `O=C(NC12CC(NC(=O)[C@H]3C[C@@H](O)c4cc(Cl)ccc4O3)(C1)C2)c1cnc(C2CNC2)o1` [Compound 389, 2-(azetidin-3-yl)-N-(3-{[(2R,4R)-6-chloro-4-hydroxy-3,4-dihydro-2H-1-benzopyran-2-carbonyl]amino}bicyclo[1.1.1]pentan-1-yl)-1,3-oxazole-5-carboxamide], more than 2000 nM. `O=C(NC12CC(NC(=O)[C@H]3C[C@@H](O)c4cc(Cl)ccc4O3)(C1)C2)c1cnn(-c2ccccc2)c1` [Compound 390, N-(3-{[(2R,4R)-6-chloro-4-hydroxy-3,4-dihydro-2H-1-benzopyran-2-carbonyl]amino}bicyclo[1.1.1]pentan-1-yl)-1-phenyl-1H-pyrazole-4-carboxamide]: the EC50 fell in the range of 10 to 50 nM.

As to `O=C(NC12CC(NC(=O)[C@H]3C[C@@H](O)c4cc(Cl)ccc4O3)(C1)C2)c1cnn(-c2ccc(Cl)c(F)c2)c1` [Compound 391, 1-(4-chloro-3-fluorophenyl)-N-(3-{[(2R,4R)-6-chloro-4-hydroxy-3,4-dihydro-2H-1-benzopyran-2-carbonyl]amino}bicyclo[1.1.1]pentan-1-yl)-1H-pyrazole-4-carboxamide], the EC50 was less than 10 nM. As to `O=C(NC12CC(NC(=O)[C@H]3C[C@@H](O)c4cc(Cl)ccc4O3)(C1)C2)c1cnn(-c2ccc(C(F)(F)F)nc2)c1` [Compound 392, N-(3-{[(2R,4R)-6-chloro-4-hydroxy-3,4-dihydro-2H-1-benzopyran-2-carbonyl]amino}bicyclo[1.1.1]pentan-1-yl)-1-[6-(trifluoromethyl)pyridin-3-yl]-1H-pyrazole-4-carboxamide], the EC50 was in the range of 500 to 2000 nM.

These data come from US20240018133A1, “MODULATORS OF THE INTEGRATED STRESS PATHWAY” (Calico Life Sciences LLC, priority 2019, published 2024).
